In patent US20230074252A1, “DOSAGES AND METHODS FOR TREATING PULMONARY ARTERIAL HYPERTENSION WITH RODATRISTAT” (Altavant Sciences GmbH, priority 2020, published 2023):
Read-outs that look alike come from different tables or passages of the source.

Assays:
Assay in all cases: Transporter inhibition, transporter-expressing in vitro system
Format in all cases: in vitro ADME
OAT1 = molecular target: T1, OAT1 (Homo sapiens, UniProt Q4U2R8); conditions: for Potential for interaction? (transporter inhibitor), OAT1: predicted @ 600 mg BID
T1 sequence (Q4U2R8 1-563): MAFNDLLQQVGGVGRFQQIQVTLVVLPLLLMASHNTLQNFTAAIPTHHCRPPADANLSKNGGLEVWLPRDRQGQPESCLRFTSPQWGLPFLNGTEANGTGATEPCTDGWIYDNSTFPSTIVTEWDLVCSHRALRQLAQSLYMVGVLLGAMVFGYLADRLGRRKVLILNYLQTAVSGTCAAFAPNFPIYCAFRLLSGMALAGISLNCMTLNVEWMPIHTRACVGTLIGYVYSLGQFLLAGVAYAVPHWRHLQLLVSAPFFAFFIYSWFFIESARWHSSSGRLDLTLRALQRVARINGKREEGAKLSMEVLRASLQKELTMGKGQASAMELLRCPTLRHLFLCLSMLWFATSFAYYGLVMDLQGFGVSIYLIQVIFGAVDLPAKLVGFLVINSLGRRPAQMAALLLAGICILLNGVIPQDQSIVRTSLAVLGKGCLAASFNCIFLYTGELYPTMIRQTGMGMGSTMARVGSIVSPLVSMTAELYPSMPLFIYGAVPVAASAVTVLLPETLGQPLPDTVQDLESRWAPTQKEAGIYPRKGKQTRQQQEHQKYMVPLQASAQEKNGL
Method: (§1) The competitive inhibition of specific transporters was investigated for RVT-1201 and KAR5417 in transporter-expressing in vitro systems (XT158039). Inhibition of P-gp was evaluated using a Caco-2 cell line with digoxin as probe substrate. Inhibition of OATP1B1 and OATP1B3 was evaluated using a HEK293 cell line expressing these transporters with estradiol-17β-glucuronide as probe substrate. In addition, inhibition of other transporters was also investigated (BCRP, OAT1, OAT3, OCT2, MATE1, MATE2-K). The IC50 estimates for P-gp (RVT-1201) and OATP1B1/3 (RVT-1201 and KAR5417) supported further evaluation of inhibition DDI potential using the PBPK model. For each IC50 estimate, substrate concentration and Km were used to estimate RVT-1201 and KAR5417 Ki with Equation 1 (Cheng and Prusoff, 1973).

OAT3 = molecular target: T2, OAT3 (Homo sapiens, UniProt Q8TCC7); conditions: for Potential for interaction? (transporter inhibitor), OAT3: predicted @ 600 mg BID
T2 sequence (Q8TCC7 1-542): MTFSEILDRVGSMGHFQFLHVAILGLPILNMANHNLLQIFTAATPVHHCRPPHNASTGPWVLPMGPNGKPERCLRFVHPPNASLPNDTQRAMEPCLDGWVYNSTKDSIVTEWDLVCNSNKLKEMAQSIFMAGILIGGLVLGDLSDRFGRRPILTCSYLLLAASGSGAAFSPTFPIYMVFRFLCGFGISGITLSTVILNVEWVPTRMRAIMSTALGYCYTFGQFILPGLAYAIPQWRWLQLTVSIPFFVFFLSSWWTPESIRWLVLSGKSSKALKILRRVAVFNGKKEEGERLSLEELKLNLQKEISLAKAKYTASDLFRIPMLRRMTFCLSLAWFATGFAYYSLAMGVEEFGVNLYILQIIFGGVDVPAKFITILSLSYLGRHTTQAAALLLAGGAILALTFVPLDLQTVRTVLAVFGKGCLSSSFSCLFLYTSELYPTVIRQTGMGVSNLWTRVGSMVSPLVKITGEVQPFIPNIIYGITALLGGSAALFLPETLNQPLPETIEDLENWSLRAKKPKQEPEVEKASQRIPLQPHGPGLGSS
Method: as §1

BCRP = molecular target: T3, BCRP (Homo sapiens, UniProt Q9UNQ0); conditions: for Potential for interaction? (transporter inhibitor), BCRP: predicted @ 600 mg BID
T3 sequence (Q9UNQ0 1-655): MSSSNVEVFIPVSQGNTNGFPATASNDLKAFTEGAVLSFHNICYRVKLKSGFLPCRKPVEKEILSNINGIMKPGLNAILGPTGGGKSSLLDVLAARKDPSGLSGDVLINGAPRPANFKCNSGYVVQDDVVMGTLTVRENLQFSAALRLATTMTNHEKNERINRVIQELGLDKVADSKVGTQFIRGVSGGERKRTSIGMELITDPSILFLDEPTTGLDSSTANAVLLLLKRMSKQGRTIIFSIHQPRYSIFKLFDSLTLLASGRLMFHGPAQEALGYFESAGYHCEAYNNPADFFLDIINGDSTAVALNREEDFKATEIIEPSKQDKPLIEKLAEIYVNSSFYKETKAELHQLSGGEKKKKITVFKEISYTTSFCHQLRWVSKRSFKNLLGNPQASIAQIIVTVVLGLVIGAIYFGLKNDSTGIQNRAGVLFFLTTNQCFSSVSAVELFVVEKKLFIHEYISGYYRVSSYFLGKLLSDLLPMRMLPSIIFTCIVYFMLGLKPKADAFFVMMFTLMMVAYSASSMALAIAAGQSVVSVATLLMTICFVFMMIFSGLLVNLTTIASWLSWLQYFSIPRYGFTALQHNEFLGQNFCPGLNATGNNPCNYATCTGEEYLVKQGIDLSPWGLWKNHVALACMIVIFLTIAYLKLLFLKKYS
Method: as §1

MATE2-K = MATE2-K (Homo sapiens, UniProt Q86VL8); conditions: for Potential for interaction? (transporter inhibitor), MATE2-K: predicted @ 600 mg BID
Chain of MATE2-K (Q86VL8 1-566 isoform Q86VL8-3): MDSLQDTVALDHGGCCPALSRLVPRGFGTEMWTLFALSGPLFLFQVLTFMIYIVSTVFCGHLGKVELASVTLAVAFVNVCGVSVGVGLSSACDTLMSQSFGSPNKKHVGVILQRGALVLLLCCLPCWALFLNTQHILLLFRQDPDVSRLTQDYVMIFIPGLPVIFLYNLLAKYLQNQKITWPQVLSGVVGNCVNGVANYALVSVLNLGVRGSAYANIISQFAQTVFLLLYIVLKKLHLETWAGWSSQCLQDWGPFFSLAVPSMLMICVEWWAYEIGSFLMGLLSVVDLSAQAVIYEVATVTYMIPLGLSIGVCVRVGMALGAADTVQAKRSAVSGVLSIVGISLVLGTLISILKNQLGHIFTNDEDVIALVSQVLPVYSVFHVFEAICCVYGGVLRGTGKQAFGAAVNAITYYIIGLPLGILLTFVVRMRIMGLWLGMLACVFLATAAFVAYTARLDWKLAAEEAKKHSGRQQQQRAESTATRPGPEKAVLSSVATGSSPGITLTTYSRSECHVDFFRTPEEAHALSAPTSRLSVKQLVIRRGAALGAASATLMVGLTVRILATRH
Method: as §1

MATE1 = molecular target: T4, MATE1 (Homo sapiens, UniProt Q96FL8); conditions: for Potential for interaction? (transporter inhibitor), MATE1: predicted @ 600 mg BID
T4 sequence (Q96FL8 1-570): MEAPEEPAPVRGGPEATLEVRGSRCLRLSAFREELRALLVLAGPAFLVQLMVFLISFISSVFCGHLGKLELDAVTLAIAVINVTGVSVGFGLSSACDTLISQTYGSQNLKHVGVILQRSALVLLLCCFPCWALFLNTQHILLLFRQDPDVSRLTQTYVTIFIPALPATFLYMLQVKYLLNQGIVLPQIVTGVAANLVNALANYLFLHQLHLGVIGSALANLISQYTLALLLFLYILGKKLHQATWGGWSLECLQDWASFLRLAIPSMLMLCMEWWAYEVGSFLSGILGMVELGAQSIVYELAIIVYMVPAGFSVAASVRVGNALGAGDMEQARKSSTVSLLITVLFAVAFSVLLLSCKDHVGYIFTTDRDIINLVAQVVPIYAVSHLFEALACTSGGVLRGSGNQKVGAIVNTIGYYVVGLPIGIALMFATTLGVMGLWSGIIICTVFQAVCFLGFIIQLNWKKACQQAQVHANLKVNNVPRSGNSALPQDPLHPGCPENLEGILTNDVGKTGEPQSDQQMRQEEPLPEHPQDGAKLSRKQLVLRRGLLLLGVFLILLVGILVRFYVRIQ
Method: as §1

Potential for interaction? (transporter inhibitor), OAT1 (OAT1) | Potential for interaction? (transporter inhibitor), OAT3 (OAT3) | Inhibition of BCRP (in words) (BCRP) | Potential for interaction? (transporter inhibitor), BCRP (BCRP) | Potential for interaction? (transporter inhibitor), MATE2-K (MATE2-K) | Potential for interaction? (transporter inhibitor), MATE1 (MATE1) | Inhibition of MATE2-K (in words) (MATE2-K; up to 30 μM nominal concentration) | inhibition at 30 µM (MATE1; transporter-expressing in vitro system (MATE1), nominal 30 μM) [%] | Compound | Inhibition of OAT1 (in words) (OAT1) | Inhibition of OAT3 (in words) (OAT3) | Inhibition of BCRP (in words) (BCRP; listed as rodatristat ethyl) | Inhibition of BCRP (in words) (BCRP; listed as rodatristat)
No | No | not an inhibitor | No | No | No |  |  | CCOC(=O)[C@@H]1CC2(CCN(c3cc(O[C@H](c4ccc(Cl)cc4-c4ccccc4)C(F)(F)F)nc(N)n3)CC2)CN1 [Rodatristat ethyl, (S)-ethyl 8-(2-amino-6-((R)-1-(5-chloro-[1,1′-biphenyl]-2-yl)-2,2,2-trifluoroethoxy)pyrimidin-4-yl)-2,8-diazaspiro[4.5]decane-3-carboxylate] | Neither rodatristat ethyl nor rodatristat inhibited | Neither rodatristat ethyl nor rodatristat inhibited | Neither rodatristat ethyl nor rodatristat inhibited | 
No | No | not an inhibitor | No | No | No^a | did not inhibit | 30 | Nc1nc(O[C@H](c2ccc(Cl)cc2-c2ccccc2)C(F)(F)F)cc(N2CCC3(CC2)CN[C@H](C(=O)O)C3)n1 [Rodatristat, (S)-8-(2-amino-6-((R)-1-(5-chloro-[1,1′-biphenyl]-2-yl)-2,2,2-trifluoroeth-oxy)pyrimidin-4-yl)-2,8-diazaspiro[4.5]decane-3-carboxylic acid] | Neither rodatristat ethyl nor rodatristat inhibited | Neither rodatristat ethyl nor rodatristat inhibited |  | Neither rodatristat ethyl nor rodatristat inhibited
